Results from patent publication US11434227B2, “Broad spectrum antibacterial activity of novel bisbenzimidazoles targeting topoisomerase IA and the synergistic composition of bisbenzimidazole with efflux pump inhibitors against pathogenic bacteria” (Jawaharlal Nehru University (JNU), priority 2016, dated 2022).
Converted amounts (≈) assume the structure as drawn.

How the values were obtained:
[1] = biological target: E. coli Topoisomerase IA (EcTopoIA) (Escherichia coli, UniProt P06612); details: reference 5; cited from earlier work
[2] = test system: E. coli 81^R; experiment: Susceptibility (MIC, PAE, MBC), broth microdilution
Procedure: (§1) MICs were determined by the broth microdilution method according to CLSI methods (Clinical and Laboratory Standards Institute, 2005). Inoculants were incubated at 37° C. on cation adjusted Mueller Hinton (MH) Broth for 18 to 24 h. Compound were dissolved in media to 10 doubling dilutions from 128 to 0.125 μg/mL. All the bacterial strains were grown in 96 well plate with low evaporation lid (Falcon, Becton Dickinson) in presence of derivatives of benzimidazoles at 0.125, 0.25, 0.5, 1, 2, 4, 8, 16, 32, 64, 128, 256 μg/mL concentrations. […] Plates were read by Tecan Micro-plate Reader at 600 nm.

[3] = test system: E. coli 555^R; experiment: as above
Procedure: as §1

[4] = test system: E. coli 59^R; experiment: as above
Procedure: as §1

[5] = test system: E. coli 72^R; experiment: as above; details: Escherichia coli
Procedure: as §1

[6] = test system: E. coli 360^R; experiment: as above
[7] = test system: E. coli 118^R; experiment: as above
[8] = test system: E. coli 85^R; experiment: as above
Procedure: as §1

[9] = test system: E. coli DH5α; experiment: as above
Procedure: as §1

[10] = test system: E. coli 401^R; experiment: as above
Procedure: as §1

[11] = test system: Escherichia coli (ATCC 25922); experiment: as above
Procedure: as §1

[12] = test system: E. coli 151^R; experiment: as above
Procedure: as §1

[13] = biological target: E. coli Topoisomerase IA (Escherichia coli, UniProt P06612); experiment: Topoisomerase IA cleavage and religation assay; assay type: biochemical; details: 0.12-2 μM DMA, 5′-32P labeled ssDNA
Procedure: Compounds at different concentrations were added to DNA cleavage reaction mixtures (20 μl) containing 50 mM TrisHCl, pH 7.5, 2 mM MgCl2 0.2 mM DTT, 0.5 mM EDTA, 30 μg/ml BSA, 25 μg/ml of pHOT1 having specific site for DNA, 40 units of E. coli Topoisomerase IA and ligands was incubated at 37° C. for 30 min. The reactions was then terminated by adding 1% SDS and 150 μg/m Proteinase K, and incubated further for 1 h at 37° C. The DNA samples was electrophoresed in 1% agarose gel in 0.5×TBE. Ethidium bromide at a finial concentration of 0.5 μg/ml was included in the gel to resolve slowly migrating nicked product (cleavable complex) from the supercoiled DNA molecules.

[14] = test system: E. coli 132^R; experiment: Susceptibility (MIC, PAE, MBC), broth microdilution
Procedure: as §1

[15] = test system: E. coli 451^R; experiment: as above
Procedure: as §1

Sequence of E. coli Topoisomerase IA (P06612 whole entry): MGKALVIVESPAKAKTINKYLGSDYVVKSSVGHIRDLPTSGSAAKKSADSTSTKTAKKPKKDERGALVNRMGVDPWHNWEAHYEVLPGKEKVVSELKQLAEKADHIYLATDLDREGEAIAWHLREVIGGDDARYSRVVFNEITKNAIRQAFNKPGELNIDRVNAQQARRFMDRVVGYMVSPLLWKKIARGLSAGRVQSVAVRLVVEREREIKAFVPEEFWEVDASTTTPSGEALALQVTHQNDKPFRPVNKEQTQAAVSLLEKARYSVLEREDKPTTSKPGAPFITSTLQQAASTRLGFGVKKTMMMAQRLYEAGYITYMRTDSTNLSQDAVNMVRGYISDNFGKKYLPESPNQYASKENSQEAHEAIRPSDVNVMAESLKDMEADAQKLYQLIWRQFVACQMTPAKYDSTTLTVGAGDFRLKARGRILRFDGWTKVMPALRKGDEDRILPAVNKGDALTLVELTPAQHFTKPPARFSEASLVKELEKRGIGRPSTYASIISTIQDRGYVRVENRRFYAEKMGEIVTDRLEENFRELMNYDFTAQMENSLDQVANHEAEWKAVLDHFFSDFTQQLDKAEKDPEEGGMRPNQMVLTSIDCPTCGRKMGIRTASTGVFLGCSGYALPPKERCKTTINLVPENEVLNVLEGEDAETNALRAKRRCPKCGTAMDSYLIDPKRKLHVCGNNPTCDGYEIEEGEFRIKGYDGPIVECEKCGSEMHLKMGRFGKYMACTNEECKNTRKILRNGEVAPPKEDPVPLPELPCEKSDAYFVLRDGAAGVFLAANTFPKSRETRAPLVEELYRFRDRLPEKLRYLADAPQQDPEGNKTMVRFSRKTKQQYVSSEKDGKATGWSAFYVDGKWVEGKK
Sequence of E. coli Topoisomerase IA (EcTopoIA) (P06612 whole entry): as above

**Q.** For COc1ccc(-c2nc3cc(-c4nc5ccc(N6CCN(C)CC6)cc5[nH]4)ccc3[nH]2)cc1OC [DMA, 3,4-Dimethoxyphenyl bisbenzimidazole, reference compound], which target specificity [1] is on record?
**A.** The target specificity was “specific Escherichia coli Topoisomerase IA poison inhibitor over Gyrase, Human Topoisomerase I and Human Topoisomerase II”.

**Q.** And the PAE ([2]; E. coli 81^R)?
**A.** Its PAE is 23.6 h.

**Q.** What about the MBC ([2]; Escherichia coli) of the same compound?
**A.** Its MBC is 32 µM (≈ 15 µg/mL).

**Q.** And the MIC ([2]; Escherichia coli)?
**A.** Its MIC is 7.49 µg/mL (≈ 16 µM).

**Q.** What about the PAE ([3]; E. coli 555^R) of the same compound?
**A.** Its PAE is 24 h.

**Q.** And the MBC ([3]; Escherichia coli)?
**A.** The MBC was 64 µM (≈ 30 µg/mL).

**Q.** What about the MIC ([3]; Escherichia coli) of the same compound?
**A.** Its MIC is 15 µg/mL (≈ 32 µM).

**Q.** What about the PAE ([4]; E. coli 59^R) of the same compound?
**A.** Its PAE is 1.6 h.

**Q.** What about the MBC ([4]; Escherichia coli) of the same compound?
**A.** The MBC was 32 µM (≈ 15 µg/mL).

**Q.** And the MIC ([4]; Escherichia coli)?
**A.** The MIC was 7.49 µg/mL (≈ 16 µM).

**Q.** And the MBC [5]?
**A.** Its MBC is 16 µM (≈ 7.5 µg/mL).

**Q.** And the MIC [5]?
**A.** The MIC was 3.74 µg/mL (≈ 7.98 µM).

**Q.** What about the PAE ([6]; E. coli 360^R) of the same compound?
**A.** The PAE was 24 h.

**Q.** What about the MBC ([6]; Escherichia coli) of the same compound?
**A.** The MBC was 16 µM (≈ 7.5 µg/mL).

**Q.** What about the MIC ([6]; Escherichia coli) of the same compound?
**A.** The MIC was 3.74 µg/mL (≈ 7.98 µM).

**Q.** And the PAE ([7]; E. coli 118^R)?
**A.** Its PAE is 24 h.

**Q.** What about the MBC ([7]; Escherichia coli) of the same compound?
**A.** The MBC was 16 µM (≈ 7.5 µg/mL).

**Q.** And the MIC ([7]; Escherichia coli)?
**A.** Its MIC is 3.74 µg/mL (≈ 7.98 µM).

**Q.** What about the PAE ([8]; E. coli 85^R) of the same compound?
**A.** Its PAE is 24 h.

**Q.** And the MBC ([8]; Escherichia coli)?
**A.** Its MBC is 16 µM (≈ 7.5 µg/mL).

**Q.** What about the MIC ([8]; Escherichia coli) of the same compound?
**A.** Its MIC is 3.74 µg/mL (≈ 7.98 µM).

**Q.** What about the PAE ([9]; E. coli DH5α) of the same compound?
**A.** Its PAE is 20.8 h.

**Q.** And the MBC ([9]; Escherichia coli)?
**A.** The MBC was 16 µM (≈ 7.5 µg/mL).

**Q.** And the MIC ([9]; Escherichia coli)?
**A.** Its MIC is 3.74 µg/mL (≈ 7.98 µM).

**Q.** And the PAE ([10]; E. coli 401^R)?
**A.** Its PAE is 16 h.

**Q.** And the MBC ([10]; Escherichia coli)?
**A.** Its MBC is 64 µM (≈ 30 µg/mL).

**Q.** And the MIC ([10]; Escherichia coli)?
**A.** The MIC was 15 µg/mL (≈ 32 µM).

**Q.** And the PAE ([11]; ATCC 25922)?
**A.** Its PAE is 22.3 h.

**Q.** And the MBC ([11]; Escherichia coli, ATCC25922)?
**A.** The MBC was 64 µM (≈ 30 µg/mL).

**Q.** What about the MIC ([11]; Escherichia coli, ATCC25922) of the same compound?
**A.** The MIC was 15 µg/mL (≈ 32 µM).

**Q.** What about the PAE ([12]; E. coli 151^R) of the same compound?
**A.** The PAE was 21.6 h.

**Q.** And the MBC ([12]; Escherichia coli)?
**A.** The MBC was 32 µM (≈ 15 µg/mL).

**Q.** And the MIC ([12]; Escherichia coli)?
**A.** The MIC was 7.49 µg/mL (≈ 16 µM).

**Q.** What about the “DNA cleavage product formed by EcTopo1A” value [13] of the same compound?
**A.** Its value is “increased the DNA cleavage product formed by EcTopo1A”.

**Q.** And the PAE ([14]; E. coli 132^R)?
**A.** Its PAE is 24 h.

**Q.** And the MBC ([14]; Escherichia coli)?
**A.** The MBC was 32 µM (≈ 15 µg/mL).

**Q.** And the MIC ([14]; Escherichia coli)?
**A.** Its MIC is 7.49 µg/mL (≈ 16 µM).

**Q.** What about the PAE ([15]; E. coli 451^R) of the same compound?
**A.** Its PAE is 22 h.

**Q.** And the MBC ([15]; Escherichia coli)?
**A.** The MBC was 16 µM (≈ 7.5 µg/mL).

**Q.** And the MIC ([15]; Escherichia coli)?
**A.** The MIC was 3.74 µg/mL (≈ 7.98 µM).
